# Source: patent US10336701B2, “Pyridin-2-one derivatives of formula (II) useful as EP3 receptor antagonists” (Janssen Pharmaceutica NV, priority 2017, dated 2019)
# Biological target: T1, EP3 receptor (Homo sapiens, UniProt P43115)
# T1 construct: purchased Millipore HTS092M
# T1 sequence (P43115 1-390): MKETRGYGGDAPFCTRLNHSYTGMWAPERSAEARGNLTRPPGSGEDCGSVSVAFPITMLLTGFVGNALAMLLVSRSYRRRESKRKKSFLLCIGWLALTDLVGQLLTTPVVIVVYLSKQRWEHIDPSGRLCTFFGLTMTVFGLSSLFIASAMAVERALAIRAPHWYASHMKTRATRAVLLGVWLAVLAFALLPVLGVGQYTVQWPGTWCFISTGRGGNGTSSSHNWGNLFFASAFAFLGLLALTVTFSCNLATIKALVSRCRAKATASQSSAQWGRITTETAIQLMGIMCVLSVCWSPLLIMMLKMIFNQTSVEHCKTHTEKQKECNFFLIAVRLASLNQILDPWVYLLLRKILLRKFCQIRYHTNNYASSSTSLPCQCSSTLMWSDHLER
# Test: [3H]-PGE2 binding assay (EP3 competition binding)
# Settings: [3H]-PGE2 Binding Ki
# Description: EP3 competition binding was determined using the following materials and experimental conditions:
# Beads=Perkin Elmer RPNQ0001
# EP3 membrane=Millipore HTS092M
# Membrane concentration=2 μg/well
# Beads concentration=0.25 mg/well
# [3H]-PGE2=2 nM; DMSO—0.1%
# Binding buffer=50 mM Tris, 10 mM MgCl2, 1 mM • EDTA, PH 7.4.
# The binding buffer was removed from refrigeration (@ 4° C.) and allowed to warm to room temperature. Test compound (@ stock concentration of […] in DMSO) was serial dilutes (1:3) with 100% DMSO using Echo plate. Diluted test compound (30 nL) was dispensed to the 384-well assay plate (using Echo 550 Labcyte System). To each well was then added assay buffer (5 μl) and each well was spun. Beads were weighed out, dissolved in assay buffer to a concentration of 0.25 mg/15 μl. Original membrane was diluted with assay buffer to a concentration of 2 μg/5 μl. […] To each test well were then added diluted [3H]-PGE2 (5 μl), diluted membrane (5 μl), and dissolved beads (15 μl). The plate was equilibrated at room temperature on a plate shaker for 2 hours and then read with a TOPCOUNT scintillation plate reader. Results were analyzed using a Prism program with non-linear regression, one-site fit for Ki.
row,SMILES,Ki
1,"CCn1ncc2c(F)cc(-c3ccc(C4CC5CCC(C4)N5C(=O)NC(C)C)c(=O)[nH]3)cc21 (centres unmarked) [compound 208, 3-(6-(1-ethyl-4-fluoro-1H-indazol-6-yl)-2-oxo-1,2-dihydropyridin-3-yl)-N-isopropyl-8-azabicyclo[3.2.1]octane-8-carboxamide]",158 nM

# Same assay, conditions: read-out: [3H]-PGE2 Binding Ki
row,Ki,SMILES
1,29 nM,"CCn1ncc2c(F)cc(-c3ccc(C(C(C)C)n4cnnn4)c(=O)[nH]3)cc21 (centres unmarked) [Compound #171, 6-(1-ethyl-4-fluoro-1H-indazol-6-yl)-3-(2-methyl-1-(1H-tetrazol-1-yl)propyl)pyridin-2(1H)-one]"
2,24 nM,"CCn1ncc2c(F)cc(-c3[nH]c(=O)c(C(CC)(CC)c4ncco4)cc3F)cc21 [Compound #37, 6-(1-ethyl-4-fluoro-1H-indazol-6-yl)-5-fluoro-3-(3-(oxazol-2-yl)pentan-3-yl)pyridin-2(1H)-one]"
3,165 nM,"CCn1ncc2c(F)cc(-c3ccc(C4CC5COC(=O)N5C4)c(=O)[nH]3)cc21 (centres unmarked) [compound 215, 6-(6-(1-ethyl-4-fluoro-1H-indazol-6-yl)-2-oxo-1,2-dihydropyridin-3-yl)tetrahydro-1H,3H-pyrrolo[1,2-c]oxazol-3-one]"
4,121 nM,"CC(C)C(/C=C1\OC(=O)NC1=O)c1ccc(-c2ccc3cccc(C#N)c3c2)[nH]c1=O (mixture of isomers) [compound 142, (Z)-7-(5-(1-(2,4-dioxooxazolidin-5-ylidene)-3-methylbutan-2-yl)-6-oxo-1,6-dihydropyridin-2-yl)-1-naphthonitrile]"
5,195 nM,"CCn1ncc2c(F)cc(-c3[nH]c(=O)c(C(CC)(CC)c4nnc[nH]4)cc3F)cc21 [compound 36, 3-(3-(4H-1,2,4-triazol-3-yl)pentan-3-yl)-6-(1-ethyl-4-fluoro-1H-indazol-6-yl)-5-fluoropyridin-2(1H)-one]"
6,452 nM,"CCn1ncc2c(F)cc(-c3[nH]c(=O)c(C(CC)(CC)CC4=CCNC4=O)cc3F)cc21 [compound 46, 6-(1-ethyl-4-fluoro-1H-indazol-6-yl)-5-fluoro-3-(3-((2-oxo-2,5-dihydro-1H-pyrrol-3-yl)methyl)pentan-3-yl)pyridin-2(1H)-one]"
7,25 nM,"CCn1ncc2c(F)cc(-c3ccc(C(C(C)C)n4cnnc4)c(=O)[nH]3)cc21 (centres unmarked) [Compound #172, 6-(1-ethyl-4-fluoro-1H-indazol-6-yl)-3-(2-methyl-1-(4H-1,2,4-triazol-4-yl)propyl)pyridin-2(1H)-one]"
8,735 nM,"CCC(CC)(c1nnc[nH]1)c1ccc(-c2ccc3c(F)cc(F)cc3c2)[nH]c1=O [compound 33, 3-(3-(4H-1,2,4-triazol-3-yl)pentan-3-yl)-6-(5,7-difluoronaphthalen-2-yl)pyridin-2(1H)-one]"
9,59 nM,"CCn1ncc2c(F)cc(-c3ccc(C(CC)(CC)c4nnc(C(F)(F)F)o4)c(=O)[nH]3)cc21 [Compound #45, 6-(1-ethyl-4-fluoro-1H-indazol-6-yl)-3-(3-(5-(trifluoromethyl)-1,3,4-oxadiazol-2-yl)pentan-3-yl)py-ridine-2(1H)-one]"
10,60 nM,"CCC(CC)(Cc1nnc[nH]1)c1ccc(-c2ccc3cc(F)cc(F)c3c2)[nH]c1=O [compound 279, 3-(3-((4H-1,2,4-triazol-3-yl)methyl)pentan-3-yl)-6-(6,8-difluoronaphthalen-2-yl)pyridin-2(3H)-one]"
11,6 nM,"CCn1ncc2c(F)cc(-c3ccc(C(CC4(C)CCNC4=O)C(C)C)c(=O)[nH]3)cc21 (centres unmarked) [compound 146, 6-(1-ethyl-4-fluoro-1H-indazol-6-yl)-3-(3-methyl-1-(3-methyl-2-oxopyrrolidin-3-yl)butan-2-yl)pyridin-2(1H)-one]"
12,28 nM,"CCC(/C=C1/OC(=O)NC1=O)(CC)c1ccc(-c2ccc3c(F)cc(F)cc3c2)[nH]c1=O [compound 10, (E)-5-(2-(6-(5,7-difluoronaphthalen-2-yl)-2-oxo-1,2-dihydropyridin-3-yl)-2-ethylbutylidene)oxazolidine-2,4-dione]"
13,11 nM,"CCn1ncc2c(F)cc(-c3ccc(C(CC4CCC(=O)N4)C(C)C)c(=O)[nH]3)cc21 (centres unmarked) [compound 151, 6-(1-ethyl-4-fluoro-1H-indazol-6-yl)-3-(3-methyl-1-(5-oxopyrrolidin-2-yl)butan-2-yl)pyridin-2(1H)-one]"
14,6 nM,"CCn1ncc2c(F)cc(-c3ccc(C(CC)(CC)c4nnc(N(C)C)o4)c(=O)[nH]3)cc21 [Compound #57, 3-(3-(5-(dimethylamino)-1,3,4-oxadiazol-2-yl)pentan-3-yl)-6-(1-ethyl-4-fluoro-1H-indazol-6-yl)pyridin-2(1H)-one]"
15,2 nM,"CCn1ncc2c(F)cc(-c3ccc(C(CC)(CC)c4nnc(N(C)C)s4)c(=O)[nH]3)cc21 [Compound #48, 3-(3-(5-(dimethylamino)-1,3,4-thiadiazol-2-yl)pentan-3-yl)-6-(1-ethyl-4-fluoro-1H-indazol-6-yl)pyridin-2(1H)-one]"
16,12 nM,"CCn1ncc2c(F)cc(-c3ccc(C4CCC5(CC4)CCN(S(=O)(=O)C(C)C)CC5)c(=O)[nH]3)cc21 [compound 204, 6-(1-ethyl-4-fluoroindazol-6-yl)-3-[3-(propane-2-sulfonyl)-3-azaspiro[5.5]undecan-9-yl]-1H-pyridin-2-one]"
17,632 nM,"CCn1ncc2c(F)cc(-c3ccc(C(CC4CCNC4=O)C(C)C)c(=O)[nH]3)cc21 (stereo not drawn) [compound 147, Syn-6-(1-ethyl-4-fluoro-1H-indazol-6-yl)-3-(3-methyl-1-(2-oxopyrrolidin-3-yl)butan-2-yl)pyridin-2(1H)-one]"
18,20 nM,"CCn1ncc2c(F)cc(-c3ccc(C4CC5CN(C(=O)NC(C)C)CC5C4)c(=O)[nH]3)cc21 (centres unmarked) [compound 209, 5-(6-(1-ethyl-4-fluoro-1H-indazol-6-yl)-2-oxo-1,2-dihydropyridin-3-yl)-N-isopropyl-hexahydrocyclopenta[c]pyrrole-2(1H)-carboxamide]"
19,29 nM,CCn1ncc2c(F)cc(-c3ccc([C@@]45CCC[C@@H](C4)C(=O)O5)c(=O)[nH]3)cc21 (racemic) [compound 299]
20,25 nM,"CCn1ncc2c(F)cc(-c3[nH]c(=O)c(C(/C=C4\CCNC4=O)(CC)CC)cc3F)cc21 [compound 47, (E)-6-(1-ethyl-4-fluoro-1H-indazol-6-yl)-5-fluoro-3-(3-((2-oxopyrrolidin-3-ylidene)methyl)pentan-3-yl)pyridin-2(1H)-one]"
21,15 nM,"CCn1ncc2c(F)cc(-c3ccc(C4CCC5(CCNC5=O)CC4)c(=O)[nH]3)cc21 (centres unmarked) [compound 207, 8-(6-(1-ethyl-4-fluoro-1H-indazol-6-yl)-2-oxo-1,2-dihydropyridin-3-yl)-2-azaspiro[4.5]decan-1-one]"
22,> 10000 nM,"CCN1CCOc2c(F)cc(-c3ccc(C(/C=C4\CCNC4=O)(CC)CC)c(=O)[nH]3)cc21 [compound 25, (E)-6-(4-ethyl-8-fluoro-3,4-dihydro-2H-benzo[b][1,4]oxazin-6-yl)-3-(3-((2-oxopyrrolidin-3-ylidene)methyl)pentan-3-yl)pyridin-2(1H)-one]"
23,2 nM,"CCn1ncc2c(F)cc(-c3ccc(C(CC)(CC)Cc4ncco4)c(=O)[nH]3)cc21 [Compound #41, 6-(1-ethyl-4-fluoro-1H-indazol-6-yl)-3-(3-(oxazol-2-ylmethyl)pentan-3-yl)pyridin-2(1H)-one]"
24,7 nM,"CCn1ncc2c(F)cc(-c3ccc(C(CC)(CC)Cc4nnc[nH]4)c(=O)[nH]3)cc21 [compound 15, 3-(3-((4H-1,2,4-triazol-3-yl)methyl)pentan-3-yl)-6-(1-ethyl-4-fluoro-1H-indazol-6-yl)pyridin-2(1H)-one]"
25,6 nM,"CCc1nnc(C(CC)(CC)c2ccc(-c3cc(F)c4cnn(CC)c4c3)[nH]c2=O)o1 [Compound #53, 3-(3-(5-ethyl-1,3,4-oxadiazol-2-yl)pentan-3-yl)-6-(1-ethyl-4-fluoro-1H-indazol-6-yl)pyridin-2(1H)-one]"
26,11 nM,"CCn1ncc2c(F)cc(-c3ccc(C(CC)(CC)Cc4ncc[nH]4)c(=O)[nH]3)cc21 [compound 20, 3-(3-((1H-imidazol-2-yl)methyl)pentan-3-yl)-6-(1-ethyl-4-fluoro-1H-indazol-6-yl)pyridin-2(1H)-one]"
27,6 nM,"CCn1ncc2c(F)cc(-c3ccc(C(CC)(CC)c4nnc(C)o4)c(=O)[nH]3)cc21 [Compound #271, 6-(1-ethyl-4-fluoro-1H-indazol-6-yl)-3-(3-(5-methyl-1,3,4-oxadiazol-2-yl)pentan-3-yl)pyridin-2(1H)-one]"
28,787 nM,"CCn1ncc2c(F)cc(-c3ccc(C(CC4CCNC4=O)C(C)C)c(=O)[nH]3)cc21 (stereo not drawn) [compound 148, anti-6-(1-ethyl-4-fluoro-1H-indazol-6-yl)-3-(3-methyl-1-(2-oxopyrrolidin-3-yl)butan-2-yl)pyridin-2(1H)-one]"
